Test results taken from patent US10774086B2, “GSK-3 inhibitors” (BRISTOL-MYERS SQUIBB COMPANY, priority 2016, dated 2020).
pIC50: −log10 of the molar value.

Columns and labels:
GSK3α = GSK3α (Homo sapiens (Human), UniProt P49840); assay: GSK3α kinase assay (Caliper LabChip, fluoresceinated peptide substrate); type: biochemical; conditions: 250 pM enzyme, 20 uM ATP, 1.5 uM peptide, 20 hours room temperature; read-out: GSK3α IC50 (second value of GSK3β/GSK3α)
Description: IC50 values were derived by non-linear regression analysis.

pTau = pTau assay; type: cell-based
GSK3β = GSK3β (Homo sapiens (Human), UniProt P49841); assay: GSK3β kinase assay (Caliper LabChip, fluoresceinated peptide substrate); type: biochemical; conditions: 250 pM enzyme, 20 uM ATP, 1.5 uM peptide, 20 hours room temperature; read-out: GSK3β IC50 (first value of GSK3β/GSK3α)
Chain of GSK3β (P49841 whole entry, species assumed): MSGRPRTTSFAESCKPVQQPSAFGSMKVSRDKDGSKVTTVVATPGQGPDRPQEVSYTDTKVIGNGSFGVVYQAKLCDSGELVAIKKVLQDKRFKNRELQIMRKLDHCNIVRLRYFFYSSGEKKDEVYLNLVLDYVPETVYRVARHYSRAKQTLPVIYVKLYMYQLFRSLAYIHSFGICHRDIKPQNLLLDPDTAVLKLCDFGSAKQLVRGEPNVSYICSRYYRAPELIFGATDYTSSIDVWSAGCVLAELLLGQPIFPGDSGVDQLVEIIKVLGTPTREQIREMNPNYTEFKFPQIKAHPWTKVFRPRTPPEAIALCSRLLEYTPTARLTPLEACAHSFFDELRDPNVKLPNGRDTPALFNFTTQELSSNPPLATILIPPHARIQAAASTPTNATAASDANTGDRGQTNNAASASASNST
Description: The kinase assay was performed in V-bottom 384-well plates. […] The reaction was incubated at room temperature for 20 hours and terminated by adding 45 μl of 35 mM EDTA to each sample. The reaction mixture was analyzed on the Caliper LabChip3000 (Caliper, Hopkinton, Mass.) by electrophoretic separation of the unphosphorylated substrate and phosphorylated product. […] Compounds were dissolved at 10 mM in dimethylsulfoxide (DMSO) and evaluated at eleven concentrations. IC50 values were derived by non-linear regression analysis.

Chain of GSK3α (P49840 whole entry, species assumed): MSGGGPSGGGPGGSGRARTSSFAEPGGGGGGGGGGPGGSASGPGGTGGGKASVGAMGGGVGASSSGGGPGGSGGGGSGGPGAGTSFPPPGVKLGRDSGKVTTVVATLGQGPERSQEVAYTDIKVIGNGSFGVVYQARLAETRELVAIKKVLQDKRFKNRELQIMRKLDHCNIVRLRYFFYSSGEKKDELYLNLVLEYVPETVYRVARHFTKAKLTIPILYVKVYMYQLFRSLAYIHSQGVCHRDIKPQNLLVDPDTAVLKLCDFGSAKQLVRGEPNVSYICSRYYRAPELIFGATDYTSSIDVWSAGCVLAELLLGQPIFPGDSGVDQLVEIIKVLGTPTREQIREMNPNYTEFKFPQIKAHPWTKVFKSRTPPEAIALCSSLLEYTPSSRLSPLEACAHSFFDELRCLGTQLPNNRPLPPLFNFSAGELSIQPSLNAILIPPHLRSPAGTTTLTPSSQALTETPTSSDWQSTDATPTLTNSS

Row | Compound | pIC50 (GSK3α) | pIC50 (pTau) | pIC50 (GSK3β)
1 | N#Cc1ccc(-c2ccncc2NC(=O)c2ccnn3cc(-c4ccccc4)nc23)cc1 [Example 8, N-(4-(4-Cyanophenyl)pyridin-3-yl)-2-phenylimidazo[1,2-b]pyridazine-8-carboxamide] | 9.52 | 6.80 | 8.96
2 | O=C(Nc1cnccc1N1CCC(F)CC1)c1ccnn2cc(-c3ccccc3)nc12 [Example 11, N-(4-(4-Fluoropiperidin-1-yl)pyridin-3-yl)-2-phenylimidazo[1,2-b]pyridazine-8-carboxamide] | 9.70 | 7.62 | 9.52
3 | O=C(Nc1cnccc1N1CCC(F)(F)CC1)c1ccnn2cc(-c3ccccc3)nc12 [Example 12, N-(4-(4,4-Difluoropiperidin-1-yl)pyridin-3-yl)-2-phenylimidazo[1,2-b]pyridazine-8-carboxamide] | 9.70 | 7.52 | 9.40
4 | O=C(Nc1cnccc1N1CCOCC1)c1ccnn2cc(-c3ccccc3)nc12 [Example 13, N-(4-Morpholinopyridin-3-yl)-2-phenylimidazo[1,2-b]pyridazine-8-carboxamide] | 9.70 | 7.44 | 9.40
5 | C[C@@H]1COCCN1c1ccncc1NC(=O)c1ccnn2cc(-c3ccccc3)nc12 [Example 17, (R)—N-(4-(3-Methylmorpholino)pyridin-3-yl)-2-phenylimidazo[1,2-b]pyridazine-8-carboxamide] | 9.00 | 6.74 | 8.47
6 | C[C@H]1COCCN1c1ccncc1NC(=O)c1ccnn2cc(-c3ccccc3)nc12 [Example 18, (S)—N-(4-(3-Methylmorpholino)pyridin-3-yl)-2-phenylimidazo[1,2-b]pyridazine-8-carboxamide] | 9.52 | 8.24 | 9.52
7 | O=C(Nc1cnc(F)cc1N1CCC(F)(F)CC1)c1ccnn2cc(-c3ccccc3)nc12 [Example 20, N-(4-(4,4-Difluoropiperidin-1-yl)-6-fluoropyridin-3-yl)-2-phenylimidazo[1,2-b]pyridazine-8-carboxamide] | 9.22 | 6.80 | 8.64
8 | CC1CN(c2cc(F)ncc2NC(=O)c2ccnn3cc(-c4ccccc4)nc23)CCO1 (stereo not drawn) [Example 21, N-(6-fluoro-4-(2-methylmorpholino)pyridin-3-yl)-2-phenylimidazo[1,2-b]pyridazine-8-carboxamide] | 9.70 | 6.85 | 9.22
9 | O=C(Nc1cnc(Cl)cc1N1CCC(F)(F)CC1)c1ccnn2cc(-c3ccccc3)nc12 [Example 22, N-(6-Chloro-4-(4,4-difluoropiperidin-1-yl)pyridin-3-yl)-2-phenylimidazo[1,2-b]pyridazine-8-carboxamide] | 8.54 | 5.70 | 7.85
10 | COc1ccccc1-c1cn2nccc(C(=O)Nc3cnccc3N3CCC(F)(F)CC3)c2n1 [Example 23, N-(4-(4,4-Difluoropiperidin-1-yl)pyridin-3-yl)-2-(2-methoxyphenyl)imidazo[1,2-b]pyridazine-8-carboxamide] | 9.22 | 6.96 | 9.10
11 | COc1ccccc1-c1cn2nccc(C(=O)Nc3cnccc3N3CCOC(C)C3)c2n1 (stereo not drawn) [Example 24, 2-(2-Methoxyphenyl)-N-(4-(2-methylmorpholino)pyridin-3-yl)imidazo[1,2-b]pyridazine-8-carboxamide] | 9.40 | 7.10 | 9.22
12 | O=C(Nc1cnccc1N1CCOCC1)c1ccnn2cc(-c3ccc(C(F)(F)F)cc3)nc12 [Example 25, N-(4-Morpholinopyridin-3-yl)-2-(4-(trifluoromethyl)phenyl)imidazo[1,2-b]pyridazine-8-carboxamide] | 9.70 | 7.31 | 9.10
13 | CC1CN(c2ccncc2NC(=O)c2ccnn3cc(-c4ccc(C(F)(F)F)cc4)nc23)CCO1 (stereo not drawn) [Example 26, N-(4-(2-Methylmorpholino)pyridin-3-yl)-2-(4-(trifluoromethyl)phenyl)imidazo[1,2-b]pyridazine-8-carboxamide] | 9.22 | 6.92 | 8.85
14 | O=C(Nc1cnccc1N1CCCCC1)c1ccnn2ccnc12 [Example 27, N-(4-(Piperidin-1-yl)pyridin-3-yl)imidazo[1,2-b]pyridazine-8-carboxamide] | 7.94 | 6.12 | 7.70
15 | O=C(Nc1cnccc1N1CCC(F)(F)CC1)c1ccnn2ccnc12 [Example 28, N-(4-(4,4-Difluoropiperidin-1-yl)pyridin-3-yl)imidazo[1,2-b]pyridazine-8-carboxamide] | 8.70 | 6.85 | 8.34
16 | CC1CN(c2ccncc2NC(=O)c2ccnn3ccnc23)CCO1 (stereo not drawn) [Example 29, N-(4-(2-Methylmorpholino)pyridin-3-yl)imidazo[1,2-b]pyridazine-8-carboxamide] | 8.49 | 6.60 | 8.42

Row | Compound | pIC50 (GSK3α) | pIC50 (pTau) | pIC50 (GSK3β)
17 | O=C(Nc1cnccc1-c1ccc(F)cc1)c1ccnn2cc(C3CC3)nc12 [Example 30, 2-Cyclopropyl-N-(4-(4-fluorophenyl)pyridin-3-yl)imidazo[1,2-b]pyridazine-8-carboxamide] | 9.40 | 6.42 | 8.72
18 | O=C(Nc1cnccc1N1CCC(F)(F)CC1)c1ccnn2cc(C3CC3)nc12 [Example 31, 2-Cyclopropyl-N-(4-(4,4-difluoropiperidin-1-yl)pyridin-3-yl)imidazo[1,2-b]pyridazine-8-carboxamide] | 9.70 | 6.92 | 9.40
19 | CC1CN(c2ccncc2NC(=O)c2ccnn3cc(C4CC4)nc23)CCO1 (stereo not drawn) [Example 32, 2-Cyclopropyl-N-(4-(2-methylmorpholino)pyridin-3-yl)imidazo[1,2-b]pyridazine-8-carboxamide] | 9.10 | 7.22 | 8.59
20 | O=C(Nc1cnccc1-c1ccc(F)cc1)c1ccnn2cc(C3=CCCCC3)nc12 [Example 33, 2-(Cyclohex-1-en-1-yl)-N-(4-(4-fluorophenyl)pyridin-3-yl)imidazo[1,2-b]pyridazine-8-carboxamide] | 8.92 | 6.09 | 8.21
21 | O=C(Nc1cnccc1N1CCC(F)(F)CC1)c1ccnn2cc(C3=CCCCC3)nc12 [Example 34, 2-(Cyclohex-1-en-1-yl)-N-(4-(4,4-difluoropiperidin-1-yl)pyridin-3-yl)imidazo[1,2-b]pyridazine-8-carboxamide] | 10.00 | 7.55 | 9.40
22 | CC1CN(c2ccncc2NC(=O)c2ccnn3cc(C4=CCCCC4)nc23)CCO1 (stereo not drawn) [Example 35, 2-(Cyclohex-1-en-1-yl)-N-(4-(2-methylmorpholino)pyridin-3-yl)imidazo[1,2-b]pyridazine-8-carboxamide] | 9.00 | 6.80 | 8.80
23 | CCOc1ncncc1NC(=O)c1ccnn2cc(-c3ccccc3)nc12 [Example 37, N-(4-Ethoxypyrimidin-5-yl)-2-phenylimidazo[1,2-b]pyridazine-8-carboxamide] | 9.00 | 6.21 | 8.28
24 | O=C(Nc1cncnc1OCC(F)(F)F)c1ccnn2cc(-c3ccccc3)nc12 [Example 38, 2-Phenyl-N-(4-(2,2,2-trifluoroethoxy)pyrimidin-5-yl)imidazo[1,2-b]pyridazine-8-carboxamide] | 9.00 | 6.48 | 8.44
25 | O=C(Nc1cccnc1)c1ccnn2c(NCC3CC3)cnc12 [Example 39, 3-((Cyclopropylmethyl)amino)-N-(pyridin-3-yl)imidazo[1,2-b]pyridazine-8-carboxamide] | 6.05 | < 5.00 | 6.66
26 | Cc1ccncc1NC(=O)c1ccnn2c(NCC3CC3)cnc12 [Example 40, 3-((Cyclopropylmethyl)amino)-N-(4-methylpyridin-3-yl)imidazo[1,2-b]pyridazine-8-carboxamide] | 7.52 | 5.41 | 7.20
27 | CC(C)Oc1ccncc1NC(=O)c1ccnn2c(NCC3CC3)cnc12 [Example 41, 3-((Cyclopropylmethyl)amino)-N-(4-isopropoxypyridin-3-yl)imidazo[1,2-b]pyridazine-8-carboxamide] | 8.47 | 6.54 | 8.18
28 | O=C(Nc1cnccc1-c1ccccc1)c1ccnn2c(NCC3CC3)cnc12 [Example 42, 3-((Cyclopropylmethyl)amino)-N-(4-phenylpyridin-3-yl)imidazo[1,2-b]pyridazine-8-carboxamide] | 8.49 | 6.49 | 8.47
29 | O=C(Nc1cnccc1N1CCC(F)(F)CC1)c1ccnn2c(NCC3CC3)cnc12 [Example 43, 3-((Cyclopropylmethyl)amino)-N-(4-(4,4-difluoropiperidin-1-yl)pyridin-3-yl)imidazo[1,2-b]pyridazine-8-carboxamide] | 8.70 | 7.39 | 8.96
30 | O=C(Nc1cnccc1N1CCOCC1)c1ccnn2c(NCC3CC3)cnc12 [Example 44, 3-((Cyclopropylmethyl)amino)-N-(4-morpholinopyridin-3-yl)imidazo[1,2-b]pyridazine-8-carboxamide] | 8.85 | 7.19 | 8.05
31 | CC1CN(c2ccncc2NC(=O)c2ccnn3c(NCC4CC4)cnc23)CCO1 (stereo not drawn) [Example 45, 3-((Cyclopropylmethyl)amino)-N-(4-(2-methylmorpholino)pyridin-3-yl)imidazo[1,2-b]pyridazine-8-carboxamide] | 8.80 | 6.85 | 8.28
32 | CC(C)Oc1ccncc1NC(=O)c1ccnn2c(NC(=O)C3CC3)cnc12 [Example 46, 3-(Cyclopropanecarboxamido)-N-(4-isopropoxypyridin-3-yl)imidazo[1,2-b]pyridazine-8-carboxamide] | 7.29 | 5.29 | 8.22
